{"source": "patent US20110182850A1", "about": "“ORGANIC COMPOUNDS AND THEIR USES” (priority 2009, published 2011)"}
{"target": "T1, HCV NS3-4A serine protease (full-length NS3-4A protein, genotype 1a, strain HCV-1) (Hepatitis C virus genotype 1a, UniProt P26664)", "T1 construct": "using the full-length NS3-4A protein (genotype 1a, strain HCV-1)", "T1 sequence (P26664 1658-1711)": "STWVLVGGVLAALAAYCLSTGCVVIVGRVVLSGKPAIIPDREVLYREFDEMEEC", "T1 sequence (P26664 1027-1657)": "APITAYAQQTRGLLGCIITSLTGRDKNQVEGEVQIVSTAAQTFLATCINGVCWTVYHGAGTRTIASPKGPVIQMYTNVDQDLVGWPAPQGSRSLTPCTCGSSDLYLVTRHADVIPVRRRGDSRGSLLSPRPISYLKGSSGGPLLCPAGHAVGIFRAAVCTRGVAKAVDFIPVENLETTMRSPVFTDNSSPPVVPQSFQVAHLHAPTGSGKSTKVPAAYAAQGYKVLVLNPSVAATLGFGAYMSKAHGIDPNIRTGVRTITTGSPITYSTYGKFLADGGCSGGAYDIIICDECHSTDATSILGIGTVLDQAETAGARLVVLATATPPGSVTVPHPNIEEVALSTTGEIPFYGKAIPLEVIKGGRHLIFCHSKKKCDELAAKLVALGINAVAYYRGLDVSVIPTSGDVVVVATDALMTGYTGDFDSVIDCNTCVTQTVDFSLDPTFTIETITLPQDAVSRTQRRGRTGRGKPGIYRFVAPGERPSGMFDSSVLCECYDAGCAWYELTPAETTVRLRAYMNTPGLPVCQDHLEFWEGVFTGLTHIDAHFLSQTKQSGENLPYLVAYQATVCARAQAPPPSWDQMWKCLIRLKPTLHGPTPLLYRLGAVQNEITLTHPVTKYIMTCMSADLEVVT", "assay": "HCV NS3-4A protease assay", "type": "biochemical", "details": "Protease IC50", "experimental": "(§1) The inhibitory activity of certain compounds of Table A against HCV NS3-4A serine protease is determined in a homogenous assay using the full-length NS3-4A protein (genotype 1a, strain HCV-1) and a commercially available internally-quenched fluorogenic peptide substrate as described by Taliani, M., et al. 1996 Anal. Biochem. 240:60-67, which is incorporated by reference in its entirety.", "units": {"IC50": "nM"}}
{"smiles": "C=C[C@@H]1C[C@]1(NC(=O)[C@@H]1C[C@@]2(CN1C(=O)[C@@H](NC(=O)[C@@H](NC(=O)c1cnccn1)C1CCCCC1)C(C)(C)C)C(C)(C)C21CCC1)C(=O)NS(=O)(=O)C1(C)CC1", "note": "[Compound 64, (5R,8S)-7-[(2S)-2-({(2S)-2-cyclohexyl-2-[(pyrazin-2-ylcarbonyl)amino]acetyl}amino)-3,3-dimethylbutanoyl]-10,10-dimethyl-N-[(1R,2S)-1-{[(1-methylcyclopropyl)sulfonyl]carbamoyl}-2-vinylcyclopropyl]-7-azadispiro[3.0.4.1]decane-8-carboxamide]", "IC50": 1.5}
{"smiles": "C=C[C@@H]1C[C@]1(NC(=O)[C@@H]1C[C@@]2(CN1C(=O)[C@@H](NC(=O)[C@@H](NC(=O)[C@@H]1CCCCN1C(C)C)C1CCCCC1)C(C)(C)C)C(C)(C)C21CCC1)C(=O)NS(=O)(=O)C1(CC)CC1", "note": "[Compound 66, (5R,8S)-7-[(2S)-2-{[(2S)-2-cyclohexyl-2-({[(2S)-1-isopropylpiperidin-2-yl]carbonyl}amino)acetyl]amino}-3,3-dimethylbutanoyl]-N-[(1R,2S)-1-{[(1-ethylcyclopropyl)sulfonyl]carbamoyl}-2-vinylcyclopropyl]-10,10-dimethyl-7-azadispiro[3.0.4.1]decane-8-carboxamide]", "IC50": 1.8}
{"smiles": "C=C[C@@H]1C[C@]1(NC(=O)[C@@H]1C[C@@]2(CN1C(=O)[C@@H](NC(=O)[C@@H](NC(=O)[C@@H]1CCCN1C(C)C)C1CCCCC1)C(C)(C)C)C(C)(C)C21CCC1)C(=O)NS(=O)(=O)C1(C)CC1", "note": "[Compound 72, (5R,8S)-7-[(2S)-2-{[(2S)-2-cyclohexyl-2-({[(2S)-1-isopropylpyrrolidin-2-yl]carbonyl}amino)acetyl]amino}-3,3-dimethylbutanoyl]-10,10-dimethyl-N-[(1R,2S)-1-{[(1-methylcyclopropyl)sulfonyl]carbamoyl}-2-vinylcyclopropyl]-7-azadispiro[3.0.4.1]decane-8-carboxamide]", "IC50": 2}
{"smiles": "C=C[C@@H]1C[C@]1(NC(=O)[C@@H]1C[C@@]2(CN1C(=O)[C@@H](NC(=O)[C@@H](NC(=O)[C@@H]1CCCCN1CC)C1CCCCC1)C(C)(C)C)C(C)(C)C21CCC1)C(=O)NS(=O)(=O)C1(C)CC1", "note": "[Compound 73, (5R,8S)-7-[(2S)-2-{[(2S)-2-cyclohexyl-2-({[(2S)-1-ethylpiperidin-2-yl]carbonyl}amino)acetyl]amino}-3,3-dimethylbutanoyl]-10,10-dimethyl-N-[(1R,2S)-1-{[(1-methylcyclopropyl)sulfonyl]carbamoyl}-2-vinylcyclopropyl]-7-azadispiro[3.0.4.1]decane-8-carboxamide]", "IC50": 3}
{"smiles": "C=C[C@@H]1C[C@]1(NC(=O)[C@@H]1C[C@@]2(CN1C(=O)[C@@H](NC(=O)[C@@H](NC(=O)[C@@H]1CCCCN1C(C)C)C1CCCCC1)C(C)(C)C)C(C)(C)C21CCC1)C(=O)NS(=O)(=O)C(F)(F)F", "note": "[Compound 78, (5R,8S)-7-[(2S)-2-{[(2S)-2-cyclohexyl-2-({[(2S)-1-isopropylpiperidin-2-yl]carbonyl}amino)acetyl]amino}-3,3-dimethylbutanoyl]-10,10-dimethyl-N-[(1R,2S)-1-{[(trifluoromethyl)sulfonyl]carbamoyl}-2-vinylcyclopropyl]-7-azadispiro[3.0.4.1]decane-8-carboxamide]", "IC50": 2.5}
{"smiles": "C=C[C@@H]1C[C@]1(NC(=O)[C@@H]1C[C@@]2(CN1C(=O)[C@@H](NC(=O)[C@@H](NC(=O)[C@@H]1CCCCN1CC)C1CCCCC1)C(C)(C)C)C(C)(C)C21CCC1)C(=O)NS(=O)(=O)C(F)(F)F", "note": "[Compound 79, (5R,8S)-7-[(2S)-2-{[(2S)-2-cyclohexyl-2-({[(2S)-1-ethylpiperidin-2-yl]carbonyl}amino)acetyl]amino}-3,3-dimethylbutanoyl]-10,10-dimethyl-N-[(1R,2S)-1-{[(trifluoromethyl)sulfonyl]carbamoyl}-2-vinylcyclopropyl]-7-azadispiro[3.0.4.1]decane-8-carboxamide]", "IC50": 2}
{"smiles": "C=C[C@@H]1C[C@]1(NC(=O)[C@@H]1C[C@@]2(CN1C(=O)[C@@H](NC(=O)[C@@H](NC(=O)[C@@H]1CCCCN1C(C)C)C1CCCCC1)C(C)(C)C)C(C)(C)C21CCC1)C(=O)NS(=O)(=O)C1CCCC1", "note": "[Compound 80, (5R,8S)-7-[(2S)-2-{[(2S)-2-cyclohexyl-2-({[(2S)-1-isopropylpiperidin-2-yl]carbonyl}amino)acetyl]amino}-3,3-dimethylbutanoyl]-N-{(1R,2S)-1-[(cyclopentylsulfonyl)carbamoyl]-2-vinylcyclopropyl}-10,10-dimethyl-7-azadispiro[3.0.4.1]decane-8-carboxamide]", "IC50": 10}
{"smiles": "CC(C)N1CCCC[C@H]1C(=O)N[C@H](C(=O)N[C@H](C(=O)N1C[C@]2(C[C@H]1C(=O)NC1(C(=O)NS(=O)(=O)C3CC3)CCCC1)C(C)(C)C21CCC1)C(C)(C)C)C1CCCCC1", "note": "[Compound 84, (5R,8S)-7-[(2S)-2-{[(2S)-2-cyclohexyl-2-({[(2S)-1-isopropylpiperidin-2-yl]carbonyl}amino)acetyl]amino}-3,3-dimethylbutanoyl]-N-{1-[(cyclopropylsulfonyl)carba-moyl]cyclopentyl}-10,10-dimethyl-7-azadispiro[3.0.4.1]decane-8-carboxamide]", "IC50": 100}
{"smiles": "C=CCC(C)(NC(=O)[C@@H]1C[C@@]2(CN1C(=O)[C@@H](NC(=O)[C@@H](NC(=O)[C@@H]1CCCCN1C(C)C)C(C)(C)C)C(C)(C)C)C(C)(C)C21CCC1)C(=O)NS(=O)(=O)C1CC1", "note": "(stereo partly drawn) [Compound 85, (5R,8S)-N-{1-[(cyclopropylsulfonyl)carba-moyl]-1-methylbut-3-en-1-yl}-7-[(2S)-2-{[(2S)-2-({[(2S)-1-isopropylpiperidin-2-yl]carbonyl}amino)-3,3-dimethylbutanoyl]amino}-3,3-dimethylbutanoyl]-10,10-dimethyl-7-azadispiro[3.0.4.1]decane-8-carboxamide]", "IC50": 7630}
{"smiles": "C=CCC(C)(NC(=O)[C@@H]1C[C@@]2(CN1C(=O)[C@@H](NC(=O)[C@@H](NC(=O)[C@@H]1CCCCN1C(C)C)C(C)(C)C)C(C)(C)C)C(C)(C)C21CCC1)C(=O)NS(=O)(=O)C1CC1", "note": "(stereo partly drawn) [Compound 86, (5R,8S)-N-{1-[(cyclopropylsulfonyl)carba-moyl]-1-methylbut-3-en-1-yl}-7-[(2S)-2-{[(2S)-2-({[(2S)-1-isopropylpiperidin-2-yl]carbonyl}amino)-3,3-dimethylbutanoyl]amino}-3,3-dimethylbutanoyl]-10,10-dimethyl-7-azadispiro[3.0.4.1]decane-8-carboxamide]", "IC50": 4050}
{"smiles": "C=C[C@@H]1C[C@]1(NC(=O)[C@@H]1C[C@@]2(CN1C(=O)C(NC(=O)[C@@H](NC(=O)c1cnccn1)C1CCCCC1)C(C)(C)C)C(C)(C)C21CCC1)C(=O)NS(=O)(=O)C1CC1", "note": "(stereo partly drawn) [Compound 87, (5R,8S)-7-[2-({(2S)-2-cyclohexyl-2-[(pyrazin-2-ylcarbonyl)amino]acetyl}amino)-3,3-dimethylbutanoyl]-N-{(1R,2S)-1-[(cyclopropylsulfonyl)carba-moyl]-2-vinylcyclopropyl}-10,10-dimethyl-7-azadispiro[3.0.4.1]decane-8-carboxamide]", "IC50": 2.5}
{"smiles": "C=C[C@@H]1C[C@]1(NC(=O)[C@@H]1C[C@@]2(CN1C(=O)[C@@H](NC(=O)[C@@H](NC(=O)c1cnccn1)C1CCCCC1)C(C)(C)C)C(C)(C)C21CCC1)C(=O)NS(=O)(=O)C1CC1", "note": "[Compound 88, (5R,8S)-7-[(2S)-2-({(2S)-2-cyclohexyl-2-[(pyrazin-2-ylcarbonyl)amino]acetyl}amino)-3,3-dimethylbutanoyl]-N-{(1R,2S)-1-[(cyclopropylsulfonyl)carba-moyl]-2-vinylcyclopropyl}-10,10-dimethyl-7-azadispiro[3.0.4.1]decane-8-carboxamide]", "IC50": 0.8}
{"smiles": "C=C[C@@H]1C[C@]1(NC(=O)[C@@H]1C[C@@]2(CN1C(=O)[C@@H](NC(=O)[C@@H](NC(=O)C(C)(C)N1CCCC1)C1CCCCC1)C(C)(C)C)C(C)(C)C21CCC1)C(=O)NS(=O)(=O)C1CC1", "note": "[Compound 89, (5R,8S)-7-[(2S)-2-({(2S)-2-cyclohexyl-2-[(2-methyl-2-pyrrolidin-1-ylpropanoyl)amino]acetyl}amino)-3,3-dimethylbutanoyl]-N-{(1R,2S)-1-[(cyclopropylsulfonyl)carba-moyl]-2-vinylcyclopropyl}-10,10-dimethyl-7-azadispiro[3.0.4.1]decane-8-carboxamide]", "IC50": 0.8}
{"smiles": "C=C[C@@H]1C[C@]1(NC(=O)[C@@H]1C[C@@]2(CN1C(=O)[C@@H](NC(=O)[C@@H](NC(=O)[C@@H]1CCCN(CC)C1)C1CCCCC1)C(C)(C)C)C(C)(C)C21CCC1)C(=O)NS(=O)(=O)C1CC1", "note": "[Compound 90, (5R,8S)-7-[(2S)-2-{[(2S)-2-cyclohexyl-2-({[(3R)-1-ethylpiperidin-3-yl]carbonyl}amino)acetyl]amino}-3,3-dimethylbutanoyl]-N-{(1R,2S)-1-[(cyclopropylsulfonyl)carba-moyl]-2-vinylcyclopropyl}-10,10-dimethyl-7-azadispiro[3.0.4.1]decane-8-carboxamide]", "IC50": 0.7}
{"target": "T1, HCV NS3-4A serine protease (full-length NS3-4A protein, genotype 1a, strain HCV-1)", "assay": "HCV NS3-4A protease assay", "type": "biochemical", "details": "read-out: Protease IC50", "experimental": "as §1", "units": {"IC50": "nM"}}
{"smiles": "C=C[C@@H]1C[C@]1(NC(=O)[C@@H]1C[C@@]2(CN1C(=O)[C@@H](NC(=O)[C@@H](CC(=O)N(C)C)C(C)(C)C)C(C)(C)C)C(C)(C)C21CCC1)C(=O)NS(=O)(=O)C1CC1", "note": "[Compound 65, (2S)-2-tert-butyl-N1-[(1S)-1-{[(5R,8S)-8-({(1R,2S)-1-[(cyclopropylsulfonyl)carba-moyl]-2-vinylcyclopropyl}carbamoyl)-10,10-dimethyl-7-azadispiro[3.0.4.1]dec-7-yl]carbonyl}-2,2-dimethylpropyl]-N4,N4-dimethylsuccinamide]", "IC50": 70}
